# Columns and labels:
# PKA = settings: cited from earlier work
# Text: The PKA C subunit is a classic example for a Ser/Thr kinase with serine specificity and this preference is highly conserved among different species. PKA can select target substrates according to the consensus sequence RRXS*/T*Y, where X is any residue, and Y is a hydrophobic residue.
# PKA Cα F187I = molecular target: T1, PKA Cα F187I (Homo sapiens, UniProt P17612, F188I); assay: Coupled spectrophotometric kinase assay; assay type: biochemical; settings: mean ± SD of at least three independent measurements; for Km / kcat: 20 nM kinase with S-Kemptide, 10 nM with T-Kemptide, SD; for kcat/KM: catalytic efficiency
# T1 construct: made in house
# Experimental: (§1) To determine the Michaelis-Menten constant (KM) and the turnover number (kcat) of purified PKA Cα wt and the DFG+1 mutants for the peptide substrate Kemptide, a coupled spectrophotometric assay was used. As we were interested in the substrate specificity of the kinase, we tested two different peptide substrates: S-Kemptide (LRRASLG) as a serine substrate and T-Kemptide (LRRATLG) as a threonine substrate (GeneCust, Boynes, France). 50 nM PKA Cα wt were used when measured with T-Kemptide and 20 nM wt, F187I, or F187T when measured with S-Kemptide. In all other assays, the final kinase concentration was 10 nM of the respective kinase. All kinases were measured with a minimum of three independent replicates. The calculated turnover was plotted against the […] and analyzed with GraphPad Prism 8.0 (GraphPad Software, San Diego, CA, USA).
# PKA Cα F187T = molecular target: T2, PKA Cα F187T (Homo sapiens, UniProt P17612, F188T); assay: Coupled spectrophotometric kinase assay; assay type: biochemical; settings: mean ± SD of at least three independent measurements; for Km / kcat: 20 nM kinase with S-Kemptide, 10 nM with T-Kemptide, SD; for kcat/KM: catalytic efficiency
# T2 construct: made in house
# Experimental: as §1
# PKA Cα wt = molecular target: T3, PKA Cα wt (Homo sapiens, UniProt P17612); assay: Coupled spectrophotometric kinase assay; assay type: biochemical; settings: for Km / kcat: 20 nM kinase with S-Kemptide, 50 nM with T-Kemptide, SD; for Km / kcat / kcat/KM: mean ± SD of at least three independent measurements; for kcat/KM: catalytic efficiency
# T3 construct: made in house
# Experimental: as §1
Substance,higher catalytic efficiency than Kemptide (PKA),Km (PKA Cα F187I) [µM],kcat (PKA Cα F187I) [s⁻¹],kcat/KM (PKA Cα F187I),Km (PKA Cα F187T) [µM],kcat (PKA Cα F187T) [s⁻¹],kcat/KM (PKA Cα F187T),Km (PKA Cα wt) [µM],kcat (PKA Cα wt) [s⁻¹],higher catalytic efficiency (kcat/KM) for the serine substrate peptide compared to T-Kemptide (PKA Cα wt; S-Kemptide versus T-Kemptide),kcat/KM (PKA Cα wt)
GRTGRRNSI [peptide derived from PKI with a serine introduced at the P0 position],more than 70 fold,,,,,,,,,,
"LRRASLG [S-Kemptide, heptapeptide (LRRASLG), canonical serine substrate of PKA derived from the porcine liver pyruvate kinase]",,92.2 ± 3.8,25.4 ± 5.8,2.8 ± 0.8 ×10^5 M^−1s^−1,23 ± 3.1,15.7 ± 0.3,6.9 ± 1.2 ×10^5 M^−1s^−1,19.8 ± 3.9,19.8 ± 1.0,more than 100 fold,10.3 ± 1.7 ×10^5 M^−1s^−1
"LRRATLG [T-Kemptide, LRRATLG, threonine peptide substrate]",,19.8 ± 3.3,43.0 ± 4.7,22.1 ± 4.5 ×10^5 M^−1s^−1,25 ± 3.4,37.1 ± 4.5,14.9 ± 0.6 ×10^5 M^−1s^−1,861 ± 184,7.5 ± 0.8,,0.09 ± 0.02 ×10^5 M^−1s^−1

# From PMC7361990, “Molecular Basis for Ser/Thr Specificity in PKA Signaling” (Cells, 2020)
